# Source: patent US10597388B2, “Pyridazinone herbicides” (FMC CORPORATION, priority 2014, dated 2020)
# Experiments:
# Assay in all cases: Test C greenhouse herbicide test, pre- and postemergence
# Type in all cases: in vivo
# [1] = system: oilseed rape (Brassica napus)
# Outline: (§1)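 Two application timings: at sowing into a soil/sand blend, and on 2–18 cm seedlings in peat-vermiculite potting mix. A non-phytotoxic, surfactant-containing solvent carried the compounds. Plants were compared with controls and rated visually on 0–100 after 13–15 d.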
# [2] = system: barnyardgrass (Echinochloa crus-galli)
# Outline: as §1
# [3] = system: ryegrass, Italian (Italian ryegrass, Lolium multiflorum)
# Outline: as §1
# [4] = system: galium (catchweed bedstraw, Galium aparine)
# Outline: as §1
# [5] = system: morningglory (Ipomoea coccinea)
# Outline: as §1
# [6] = system: crabgrass, large (large crabgrass, Digitaria sanguinalis)
# Outline: as §1
# [7] = system: pigweed (Amaranthus retroflexus)
# Outline: as §1
# [8] = system: foxtail, giant (giant foxtail, Setaria faberii)
# Outline: as §1
# [9] = system: blackgrass (Alopecurus myosuroides)
# Outline: as §1
# corn (Zea mays) = system: corn (Zea mays)
# Outline: as §1
# [10] = system: wheat (winter wheat, Triticum aestivum)
# Outline: as §1
# [11] = system: velvetleaf (Abutilon theophrasti)
# Outline: as §1
# [12] = system: waterhemp (common waterhemp, Amaranthus rudis)
# Outline: as §1
# [13] = system: lambsquarters (Chenopodium album)
# Outline: as §1
# [14] = system: ragweed (common ragweed, Ambrosia elatior)
# Outline: as §1
# [15] = Postemergence, 31 g ai/ha, 0 to 100 scale (0 no effect, 100 complete control)
# [16] = Postemergence, 125 g ai/ha, scale 0 to 100, 0 is no effect, 100 is complete control
# [17] = Postemergence, 250 g ai/ha, scale 0 to 100, 0 no effect, 100 complete control, 13 to 15 d
# [18] = Preemergence, 31 g ai/ha, scale 0 to 100, 0 is no effect, 100 is complete control
# [19] = Preemergence, 62 g ai/ha, scale 0 to 100, 0 is no effect, 100 is complete control
# [20] = Preemergence, 125 g ai/ha, scale 0 to 100, 0 is no effect, 100 is complete control
# [21] = Preemergence, 250 g ai/ha, scale 0 to 100, 0 no effect, 100 complete control
# [22] = postemergence, 62 g ai/ha, scale 0 to 100, 0 no effect, 100 complete control
smiles,measurement,setting,value
Cc1cc(C)c2ccccc2c1-c1c(O)c(C)nn(C)c1=O [Compound 21],Oilseed Rape plant response rating,[1]; [15],65
same,"Plant response rating, Oilseed Rape",[1]; [16],100
same,"Plant response rating, Oilseed Rape",[1]; [17],100
same,"Plant response rating, Oilseed Rape",[1]; [18],90
same,"Plant response rating, Oilseed Rape",[1]; [19],100
same,"Plant response rating, Oilseed Rape",[1]; [20],100
same,Oilseed Rape plant response rating,[1]; [21],100
same,Oilseed Rape plant response rating,[1]; [22],80
same,Barnyardgrass plant response rating,[2]; [15],35
same,"Plant response rating, Barnyardgrass",[2]; [16],75
same,"Plant response rating, Barnyardgrass",[2]; [17],90
same,"Plant response rating, Barnyardgrass",[2]; [18],80
same,"Plant response rating, Barnyardgrass",[2]; [19],100
same,"Plant response rating, Barnyardgrass",[2]; [20],100
same,Barnyardgrass plant response rating,[2]; [21],100
same,Barnyardgrass plant response rating,[2]; [22],45
same,"Ryegrass, Italian plant response rating",[3]; [15],90
same,"Plant response rating, Ryegrass, Italian",[3]; [16],95
same,"Plant response rating, Ryegrass, Italian",[3]; [17],95
same,"Plant response rating, Ryegrass, Italian",[3]; [18],90
same,"Plant response rating, Ryegrass, Italian",[3]; [19],90
same,"Plant response rating, Ryegrass, Italian",[3]; [20],90
same,"Ryegrass, Italian plant response rating",[3]; [21],95
same,"Ryegrass, Italian plant response rating",[3]; [22],95
same,Galium plant response rating,[4]; [15],98
same,"Plant response rating, Galium",[4]; [16],100
same,"Plant response rating, Galium",[4]; [17],100
same,"Plant response rating, Galium",[4]; [18],98
same,"Plant response rating, Galium",[4]; [19],98
same,"Plant response rating, Galium",[4]; [20],98
same,Galium plant response rating,[4]; [21],100
same,Galium plant response rating,[4]; [22],100
same,Morningglory plant response rating,[5]; [15],85
same,"Plant response rating, Morningglory",[5]; [16],100
same,"Plant response rating, Morningglory",[5]; [17],100
same,"Plant response rating, Morningglory",[5]; [18],95
same,"Plant response rating, Morningglory",[5]; [19],98
same,"Plant response rating, Morningglory",[5]; [20],100
same,Morningglory plant response rating,[5]; [21],100
same,Morningglory plant response rating,[5]; [22],100
same,"Crabgrass, Large plant response rating",[6]; [15],30
same,"Plant response rating, Crabgrass, Large",[6]; [16],40
same,"Plant response rating, Crabgrass, Large",[6]; [17],55
same,"Plant response rating, Crabgrass, Large",[6]; [18],35
same,"Plant response rating, Crabgrass, Large",[6]; [19],85
same,"Plant response rating, Crabgrass, Large",[6]; [20],85
same,"Crabgrass, Large plant response rating",[6]; [21],100
same,"Crabgrass, Large plant response rating",[6]; [22],35
same,Pigweed plant response rating,[7]; [15],70
same,"Plant response rating, Pigweed",[7]; [16],95
same,"Plant response rating, Pigweed",[7]; [17],98
same,"Plant response rating, Pigweed",[7]; [18],100
same,"Plant response rating, Pigweed",[7]; [19],100
same,"Plant response rating, Pigweed",[7]; [20],100
same,Pigweed plant response rating,[7]; [21],100
same,Pigweed plant response rating,[7]; [22],95
same,"Foxtail, Giant plant response rating",[8]; [15],55
same,"Plant response rating, Foxtail, Giant",[8]; [16],90
same,"Plant response rating, Foxtail, Giant",[8]; [17],95
same,"Plant response rating, Foxtail, Giant",[8]; [18],100
same,"Plant response rating, Foxtail, Giant",[8]; [19],100
same,"Plant response rating, Foxtail, Giant",[8]; [20],100
same,"Foxtail, Giant plant response rating",[8]; [21],100
same,"Foxtail, Giant plant response rating",[8]; [22],80
same,Blackgrass plant response rating,[9]; [15],80
same,"Plant response rating, Blackgrass",[9]; [16],90
same,"Plant response rating, Blackgrass",[9]; [17],95
same,"Plant response rating, Blackgrass",[9]; [18],90
same,"Plant response rating, Blackgrass",[9]; [19],90
same,"Plant response rating, Blackgrass",[9]; [20],90
same,Blackgrass plant response rating,[9]; [21],90
same,Blackgrass plant response rating,[9]; [22],90
same,Corn plant response rating,corn (Zea mays); [15],5
same,"Plant response rating, Corn",corn (Zea mays); [16],20
same,"Plant response rating, Corn",corn (Zea mays); [17],20
same,"Plant response rating, Corn",corn (Zea mays); [18],0
same,"Plant response rating, Corn",corn (Zea mays); [19],15
same,"Plant response rating, Corn",corn (Zea mays); [20],40
same,Corn plant response rating,corn (Zea mays); [21],65
same,Corn plant response rating,corn (Zea mays); [22],65
same,Wheat plant response rating,[10]; [15],0
same,"Plant response rating, Wheat",[10]; [16],35
same,"Plant response rating, Wheat",[10]; [17],35
same,"Plant response rating, Wheat",[10]; [19],5
same,"Plant response rating, Wheat",[10]; [20],30
same,Wheat plant response rating,[10]; [21],40
same,Wheat plant response rating,[10]; [22],5
same,Velvetleaf plant response rating,[11]; [15],75
same,"Plant response rating, Velvetleaf",[11]; [16],85
same,"Plant response rating, Velvetleaf",[11]; [17],90
same,"Plant response rating, Velvetleaf",[11]; [19],90
same,"Plant response rating, Velvetleaf",[11]; [20],98
same,Velvetleaf plant response rating,[11]; [21],98
same,Velvetleaf plant response rating,[11]; [22],85
same,Waterhemp plant response rating,[12]; [15],40
same,"Plant response rating, Waterhemp",[12]; [16],85
same,"Plant response rating, Waterhemp",[12]; [17],80
same,"Plant response rating, Waterhemp",[12]; [19],95
same,"Plant response rating, Waterhemp",[12]; [20],100
same,Waterhemp plant response rating,[12]; [21],100
same,Waterhemp plant response rating,[12]; [22],75
same,Lambsquarters plant response rating,[13]; [15],85
same,"Plant response rating, Lambsquarters",[13]; [16],95
same,"Plant response rating, Lambsquarters",[13]; [17],98
same,"Plant response rating, Lambsquarters",[13]; [18],90
same,"Plant response rating, Lambsquarters",[13]; [19],98
same,"Plant response rating, Lambsquarters",[13]; [20],98
same,Lambsquarters plant response rating,[13]; [21],100
same,Lambsquarters plant response rating,[13]; [22],90
same,Ragweed plant response rating,[14]; [15],85
same,"Plant response rating, Ragweed",[14]; [16],90
same,"Plant response rating, Ragweed",[14]; [17],95
same,"Plant response rating, Ragweed",[14]; [18],95
same,"Plant response rating, Ragweed",[14]; [19],100
same,"Plant response rating, Ragweed",[14]; [20],100
same,Ragweed plant response rating,[14]; [21],100
same,Ragweed plant response rating,[14]; [22],90
